Assay: xn = mol fraction of the nth substance listed

C=CC[n+]1ccn(C)c1.[Cl-] + NC(N)=O
101 kPa
Conditions | electrical conductivity, 298 K [S/m] | electrical conductivity, 308 K [S/m] | electrical conductivity, 318 K [S/m] | electrical conductivity, 328 K [S/m] | electrical conductivity, 338 K [S/m] | viscosity, 298.15 K [mPa·s]
x1 = 0.5579 | 0.169 | 0.228 | 0.287 | 0.342 | 0.416 | 405
x1 = 0.6543 | 0.222 | 0.298 | 0.372 | 0.448 | 0.538 | 353
x1 = 0.7911 | 0.283 | 0.372 | 0.464 | 0.562 | 0.677 | 299
x1 = 1 | 0.411 | 0.498 | 0.618 | 0.736 | 0.862 | 255

CCOC(=O)C[n+]1ccn(C)c1.[Cl-] + NC(N)=O
101 kPa
Conditions | electrical conductivity, 298 K [S/m] | electrical conductivity, 308 K [S/m] | electrical conductivity, 318 K [S/m] | electrical conductivity, 328 K [S/m] | electrical conductivity, 338 K [S/m] | viscosity, 298.15 K [mPa·s]
x1 = 0.4945 | 0.282 | 0.347 | 0.414 | 0.489 | 0.602 | 567
x1 = 0.5947 | 0.346 | 0.433 | 0.51 | 0.607 | 0.722 | 482
x1 = 0.7459 | 0.419 | 0.525 | 0.631 | 0.741 | 0.883 | 415
x1 = 1 | 0.509 | 0.636 | 0.764 | 0.916 | 1.06 | 349

CC[N+](CC)(CC)CC.[Cl-] + NCCCO
viscosity [mPa·s], 101.3 kPa
Conditions | 293.15 K | 298.15 K | 303.15 K | 308.15 K | 313.15 K | 318.15 K | 323.15 K | 328.15 K | 333.15 K
x2 = 0.8 | 55.2 | 42.4 | 32.9 | 26.2 | 21.2 | 17.4 | 14.4 | 12.1 | 10.3
x2 = 0.8571 | 46.6 | 35.8 | 27.9 | 22.3 | 18 | 14.8 | 12.3 | 10.4 | 8.8
x2 = 0.8889 | 43.4 | 33.4 | 26.1 | 21 | 16.9 | 14 | 11.6 | 9.8 | 8.3

CCCC[N+](C)(CCCC)CCCC.[Cl-] + N[C@@H](Cc1ccccc1)C(=O)O + O
viscosity [mPa·s], 101.3 kPa
Conditions | 293.15 K | 298.15 K | 303.15 K | 308.15 K | 313.15 K
x2 = 0, x1 = 0.00144 | – | – | – | – | 0.7
x2 = 0.0003636, x1 = 0.00072 | 0.99 | 0.89 | 0.76 | 0.67 | –
x2 = 0.0003667, x1 = 0.001439 | 0.98 | 0.9 | 0.78 | 0.79 | 0.71
x2 = 0.000726, x1 = 0.0007198 | 1 | 0.9 | 0.77 | 0.68 | –
x2 = 0.0007319, x1 = 0.001438 | 0.99 | 0.91 | 0.8 | 0.8 | 0.72
x2 = 0.00109, x1 = 0.0007195 | 1.02 | 0.92 | 0.78 | 0.69 | –
x2 = 0.001099, x1 = 0.001438 | 1.01 | 0.92 | 0.81 | 0.81 | 0.74
x2 = 0.001452, x1 = 0.0007192 | 1.03 | 0.93 | 0.79 | 0.71 | –
x2 = 0.001466, x1 = 0.001437 | 1.02 | 0.94 | 0.82 | 0.83 | 0.75
x2 = 0.001813, x1 = 0.000719 | 1.04 | 0.94 | 0.81 | 0.72 | –
x2 = 0.001828, x1 = 0.001437 | 1.03 | 0.95 | 0.84 | 0.84 | 0.76
x2 = 0.002175, x1 = 0.0007187 | 1.06 | 0.96 | 0.82 | 0.73 | –
x2 = 0.002194, x1 = 0.001436 | 1.05 | 0.96 | 0.85 | 0.85 | 0.78
x2 = 0.002538, x1 = 0.0007185 | 1.07 | 0.97 | 0.83 | 0.75 | –
x2 = 0.002562, x1 = 0.001436 | 1.06 | 0.98 | 0.86 | 0.87 | 0.79

From the CheMixHub ionic liquid set
